Data from patent publication US12168007B1, “Substituted piperazines as dopamine D3/D2 receptor modulators” (Richter Gedeon Nyrt, priority 2023, dated 2024).
In brackets after ≈: the same amount, converted by molar mass. Read-outs that look alike come from different tables or passages of the source.

How the values were obtained:
[1] = Thermodynamic solubility study (37° C., 4 hours); assay type: physicochemical; settings: fassgf or other biorelevant, thermodynamic from solid, SIF pH = 6.8, 4 hours, read-out: Thermodynamic sol.
Procedure: Thermodynamic Solubility Study (37° C., 4 Hours)
The resulted mixtures/oversaturated solutions are shaken at 37° C. for 4 hrs (to the solution equilibrium) and are filtrated on a Millipore MultiSreen Filter Plate (0.45 μm). Concentrations of the filtrates are determined by LC/UV/MS based on a 5-point calibration. (When the solid material dissolved totally in the aqueous test medium the result should be considered as a minimal value.) Results are shown in Table 2.

human D3 receptors [2] = target: T1, human D3 receptors (Homo sapiens (Human), UniProt P35462); assay: β-arrestin recruitment to human dopamine D3 receptors (PathHunter CHO-K1); assay type: cell-based
Target sequence in this assay (P35462 whole entry, looked up): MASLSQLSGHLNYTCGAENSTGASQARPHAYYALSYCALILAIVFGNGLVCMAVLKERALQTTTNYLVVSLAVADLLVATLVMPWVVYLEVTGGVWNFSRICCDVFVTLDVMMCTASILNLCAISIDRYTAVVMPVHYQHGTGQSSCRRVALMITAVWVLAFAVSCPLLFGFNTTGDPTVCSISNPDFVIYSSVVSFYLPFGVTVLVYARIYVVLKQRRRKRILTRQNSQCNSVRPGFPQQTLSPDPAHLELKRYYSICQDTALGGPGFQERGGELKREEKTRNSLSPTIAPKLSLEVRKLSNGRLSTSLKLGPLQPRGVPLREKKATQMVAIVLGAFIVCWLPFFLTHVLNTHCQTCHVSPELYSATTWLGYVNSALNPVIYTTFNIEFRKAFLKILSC
Target sequence in this assay (P32121 whole entry partner, looked up): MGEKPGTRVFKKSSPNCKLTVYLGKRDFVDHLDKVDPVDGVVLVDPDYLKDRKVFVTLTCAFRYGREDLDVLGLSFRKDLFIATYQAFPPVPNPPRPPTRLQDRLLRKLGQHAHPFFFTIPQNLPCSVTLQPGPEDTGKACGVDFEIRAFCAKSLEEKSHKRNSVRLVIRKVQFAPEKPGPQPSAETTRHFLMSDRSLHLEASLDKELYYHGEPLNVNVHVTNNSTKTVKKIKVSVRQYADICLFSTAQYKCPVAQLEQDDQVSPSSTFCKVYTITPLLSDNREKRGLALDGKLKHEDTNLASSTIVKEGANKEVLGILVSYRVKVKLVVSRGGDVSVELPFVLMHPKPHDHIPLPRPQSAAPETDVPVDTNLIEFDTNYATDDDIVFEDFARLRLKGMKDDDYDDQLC
Procedure: Measurement of β-Arrestin Recruitment to Human Dopamine D3 Receptors
PathHunter® CHO-K1 cells expressing tagged human D3 receptors and tagged β-arrestin-2 (Eurofins DiscoverX, Fremont, CA, USA) were seeded into 96-well white-walled clear bottom tissue culture plates in 90 μL AssayComplete™ Cell Plating 2 (CP2) reagent (Eurofins DiscoverX) at a density of 25,000 cells/well and incubated overnight in humidified atmosphere with 5% CO2 at 37° C. Twenty to twenty-four hours later, 20 μL of test compounds or vehicle in CP2 reagent containing 2.2% DMSO was added to the cells and the cells were incubated for 90 minutes at 37° C. Following incubation, 55 μL PathHunter® Detection Reagent (Eurofins DiscoverX) was added per well and the plates were incubated for 60 minutes at 25° C. followed by luminescence detection using a PHERAstar® FS multimode plate reader (BMG Labtech, Ortenberg, Germany).
Raw data were first converted to stimulation % above basal values. The stimulation % above basal values were further converted to % of maximal stimulation of β-arrestin recruitment by 1 μM dopamine. EC50 values were calculated from concentration-response curves of at least six concentrations in duplicates by sigmoidal fitting using Origin® 7.5 software (OriginLab© Corporation, Northampton, MA, USA) and were defined as the concentration of the agonist with half-maximal stimulation.

human D3 receptors [3] = target: T1, human D3 receptors; assay: Agonism at human D3 receptors, cAMP detection (HTRF) in HEK293 cells; assay type: cell-based; settings: inhibition of forskolin-stimulated cAMP accumulation, HEK293 cells co-expressing adenylyl cyclase V; read-out: D3 cAMP pEC50 (converted)
Target sequence in this assay (P35462 whole entry): as the sequence (P35462 whole entry, looked up) above
Procedure: Characterization of Agonism at Human D3 Receptors Using Cyclic Adenosine Monophosphate Detection
Agonist activity at human D3 receptors was assayed by cAMP levels in HEK293 cells expressing recombinant human D3 receptors (BioXtal, Saint-Félix, France) stably co-expressing adenylyl cyclase V (ACV) (cell line developed by Gedeon Richter) by homogenous time-resolved fluorescence (HTRF) using the cAMP Gi kit (Cisbio/PerkinElmer). HEK293 cells expressing recombinant human D3 receptors and ACV were cultured in DMEM supplemented with 10% FBS, 1% penicillin-streptomycin antimycotic solution, 1% pyruvate, 100 μg/mL G418 (Thermo Fisher Scientific) and 60 μg/mL hygromycin B and maintained at 37° C. in a humidified atmosphere containing 5% CO2. […]
Results were calculated from the ratio of acceptor fluorescence signal (A665 nm) and donor fluorescence signal (A620 nm)×10^4 and expressed as ΔF % values using the following formula: 100× (ratio sample-ratio negative control)/ratio negative control. In all experiments multiple wells were measured in parallel, and the mean ΔF % values were used for further analysis. Agonist activity values were calculated as percentage of inhibition of forskolin-stimulated cAMP accumulation normalized to the response evoked by a maximally effective concentration of dopamine tested in the same experiment. […]

human D2L receptors [4] = target: T2, human D2L receptors (Homo sapiens (Human), UniProt P14416); assay: β-arrestin recruitment to human dopamine D2L receptors (PathHunter CHO-K1); assay type: cell-based; settings: β-arrestin-2 recruitment, CHO-K1 cells, normalized to 30 μM dopamine; read-out: D2L arrestin pEC50 (converted)
Target sequence in this assay (P14416 whole entry, looked up): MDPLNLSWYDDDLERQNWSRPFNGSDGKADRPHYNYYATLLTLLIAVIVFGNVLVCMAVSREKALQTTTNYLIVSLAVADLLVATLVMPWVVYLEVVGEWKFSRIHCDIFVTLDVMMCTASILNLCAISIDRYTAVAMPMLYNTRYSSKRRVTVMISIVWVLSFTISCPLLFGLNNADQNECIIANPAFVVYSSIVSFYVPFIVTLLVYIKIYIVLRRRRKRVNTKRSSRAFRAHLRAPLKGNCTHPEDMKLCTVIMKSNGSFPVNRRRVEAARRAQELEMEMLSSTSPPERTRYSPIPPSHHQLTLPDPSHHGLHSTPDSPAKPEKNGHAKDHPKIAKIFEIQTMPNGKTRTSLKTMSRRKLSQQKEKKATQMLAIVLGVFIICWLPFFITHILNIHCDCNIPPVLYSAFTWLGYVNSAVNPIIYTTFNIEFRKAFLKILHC
Target sequence in this assay (P32121 whole entry partner, looked up): as the sequence (P32121 whole entry partner, looked up) above
Procedure: Measurement of β-Arrestin Recruitment to Human Dopamine D2L Receptors
PathHunter® CHO-K1 cells expressing tagged human D2L receptors and tagged β-arrestin-2 (Eurofins DiscoverX, Fremont, CA, USA) were seeded into 96-well white-walled clear bottom tissue culture plates in 90 μL/cell AssayComplete™ Cell Plating 2 (CP2) reagent (Eurofins DiscoverX) at a density of 20,000 cells/well. The plates were incubated overnight in a humidified atmosphere with 5% CO2 at 37° C. Twenty to twenty-four hours later, 20 μL of test compound or vehicle in CP2 reagent and containing 2.2% DMSO was added to the cells, and they were incubated for 90 minutes at 37° C. Then, 55 μL PathHunter® Detection Reagent (Eurofins DiscoverX) was added per well and plates were incubated for 60 minutes at 25° C., followed by luminescence detection using a PHERAstar® FS multimode plate reader (BMG Labtech, Ortenberg, Germany). Raw data were converted to percent stimulation above basal values. Values were further converted to percent of maximal stimulation of β-arrestin recruitment by 30 μM dopamine. EC50 values were calculated from concentration-response curves of at least six concentrations run in duplicates by sigmoidal fitting using Origin® 7.5 software (OriginLab Corporation, Northampton, MA, USA) and were defined as the concentration of the agonist with half-maximal stimulation.

human D2L receptors [5] = target: T2, human D2L receptors; assay: Agonism of human D2L receptors, cAMP detection (HTRF) in CHO-K1 cells; assay type: cell-based; settings: inhibition of forskolin-stimulated cAMP accumulation, read-out: D2L cAMP pEC50 (converted)
Target sequence in this assay (P14416 whole entry): as the sequence (P14416 whole entry, looked up) above
Procedure: Agonist activity at human D2L receptors was assayed by measuring cAMP levels in CHO-K1 cells expressing human D2L receptors (Eurofins DiscoverX, Fremont, CA, USA) by homogenous time-resolved fluorescence (HTRF®) using the cAMP Gi kit (Cisbio/PerkinElmer). CHO-K1 cells expressing human D2L receptors were cultured in Ham's F12 medium supplemented with 10% FBS, 1% penicillin-streptomycin antimycotic solution, and 800 μg/mL G418 (Thermo Fisher Scientific, Waltham, MA, USA) and maintained at 37° C. in a humidified atmosphere containing 5.0% CO2. […] Results were calculated from the ratio of acceptor fluorescence signal (A665 nm) and donor fluorescence signal (A620 nm)×10^4 and expressed as ΔF % values using the following formula: 100×(Ratio Sample-Ratio Negative Control)/Ratio Negative Control. In experiments, all treatments were measured in multiple wells in parallel, and the mean ΔF % values were used for further analysis. Agonist activity values were calculated as percentage of inhibition of forskolin-stimulated cAMP accumulation normalized to the response evoked by a maximally effective concentration of dopamine tested in the same experiment. […]

human 5-HT2A receptors = human 5-HT2A receptors (Homo sapiens (Human), UniProt P28223); assay: Antagonism at human 5-HT2A receptors, fluorometric Ca2+ detection; assay type: cell-based; settings: CHO-K1 cells with Gα16, against EC80 5-HT; read-out: 5-HT2A Ca2+ pIC50 (converted)
Sequence of human 5-HT2A receptors (P28223 whole entry): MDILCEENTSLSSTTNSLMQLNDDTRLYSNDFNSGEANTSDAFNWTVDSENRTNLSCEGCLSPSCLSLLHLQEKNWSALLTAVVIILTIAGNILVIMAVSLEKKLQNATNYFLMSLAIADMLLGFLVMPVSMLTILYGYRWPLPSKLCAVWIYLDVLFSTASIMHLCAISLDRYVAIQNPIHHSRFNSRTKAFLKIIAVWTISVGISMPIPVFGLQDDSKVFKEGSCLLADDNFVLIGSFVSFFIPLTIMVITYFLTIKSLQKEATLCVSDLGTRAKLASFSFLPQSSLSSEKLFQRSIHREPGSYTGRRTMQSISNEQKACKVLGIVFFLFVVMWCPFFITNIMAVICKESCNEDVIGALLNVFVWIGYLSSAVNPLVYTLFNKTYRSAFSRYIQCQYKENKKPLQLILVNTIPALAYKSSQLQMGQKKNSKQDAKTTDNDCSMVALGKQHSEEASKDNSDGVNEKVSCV
From the text: Characterization of Antagonism at Human 5-HT2A Receptors using Fluorometric Ca^2+ Detection
CHO-K1 cells expressing human recombinant 5-HT2A receptors and Gα16 (purchased from Euroscreen Fast, Brussels, BE) in culture were cryopreserved according to established protocols, using 90% FBS/10% DMSO as medium. Prior to the experiment, cells were thawed, resuspended in PowerCHO™ 2 medium (Lonza, Basel, Switzerland) supplemented with 10% fetal bovine serum (FBS), 1% penicillin-streptomycin antimycotic solution, and 1% pyruvate. Cells were seeded in 96-well microplates at a density of 40,000 cells/well and incubated overnight at 37° C. in a humidified atmosphere containing 5.0% CO2. […]
Baseline and agonist-evoked [Ca^2+]i (intracellular Ca^2+) changes were monitored with a FlexStation® II 96 well plate reader (Molecular Devices, San Jose, CA, USA). […] Baseline was recorded for 20 seconds followed by agonist stimulation, when 50 μL 3× concentrated agonist (5-HT at its EC80) solution or assay buffer/vehicle was added to all wells at 75 μL/second using the onboard pipettor, at a height corresponding to 155 μL. Fluorescence was monitored for an additional 20 seconds.
Compounds were evaluated against an EC80 5-HT concentration, as determined on each plate with the built-in curve fitting module of the measurement software (SoftMax® Pro 5.2, Molecular Devices, San Jose, CA, USA). […]

Kinetic solubility study = assay type: physicochemical; settings: PBS pH 7.4 with 1% DMSO, aqueous buffer, kinetic from dmso stock; PBS pH = 7.4, 2 hours, RT, 1% DMSO co-solvent; read-out: Kinetic sol.
Procedure: Following shaking of the suspension on an orbital shaker at 300 rpm for 2 hours, the suspension was clarified by vacuum filtration (Multiscreen® Vacuum Manifold; MilliporeSigma). Immediately following the filtration step, […] of the filtrate was transferred into […] of acetonitrile to avoid compound precipitation from the saturated solution. The concentration of the research compound was determined by HPLC-UV-(MS) detection, by using an external standard made from the same batch of research compound.

[6] = tested on: apomorphine-induced climbing and sniffing; assay: Apomorphine-induced climbing and sniffing in mice; assay type: in vivo; settings: Mus musculus, sc, male CD1 mice, subcutaneous, 1.5 mg/kg apomorphine
Procedure: Apomorphine-Induced Climbing and Sniffing in Mice
Male CD1® mice (Envigo, Horst, NL) weighing 24-29 g were used in the experiments (n=12 per treatment group). Climbing and sniffing behavior were measured by visual observation in cylindrical cages.
Immediately after the subcutaneous administration of the vehicle or the test compound, animals were placed into the cages for 10 minutes to habituate. […] After treatment, animals were replaced into the cylindrical cages. The measurement of climbing and sniffing behavior started 10 minutes after the apomorphine treatment (during the 11th minute) and lasted for 16 minutes. Every minute the climbing behavior was scored as follows: four paws on the floor (0 score); forefeet touching the bars (1 score); and four paws grasping the bars (2 score). Animals were also rated for repetitive sniffing as a measure of stereotypy according to the following scale: no sniffing (0 score), moderate sniffing, little snout contact with cage walls or floor (1 score); and constant sniffing, persistent snout contact (2 score).
Data were analyzed using GraphPad Prism 9 software (GraphPad). Scores for both behaviors were tallied for each individual (possible maximum score 32) and group means were calculated. Drug effect was calculated as percent inhibition of the apomorphine-induced behavior. […]

[7] = tested on: phencyclidine-induced hypermotility; assay: Phencyclidine-induced hypermotility in rats; assay type: in vivo; settings: Rattus norvegicus; male Harlan-Wistar rats, percent inhibition, linear regression; read-out: PCP (ED50 mg/kg)
Procedure: Phencyclidine-Induced Hypermotility in Rats
Spontaneous locomotor activity was measured using a six-channel activity monitor manufactured by Experimetria Ltd. (Budapest, HU). […] Additional arrays of photocells (30 pairs) were placed along opposite sides of the cage at different heights (6.5 cm, 12 cm, 18 cm and 23 cm) in order to detect rearing responses.
Test compounds were administered to study animals either orally or subcutaneously, with ten animals per treatment group. In these studies, male Harlan-Wistar rats (Toxi-Coop, Budapest, HU) weighing 190-210 grams were used. After oral administration of test compound or vehicle, animals were individually habituated to the activity monitors for 30 minutes. In the cases of subcutaneous administration of test compounds, rats were first habituated for 15 minutes to the activity monitors, then treated with the test compound or vehicle followed by replacing them into the activity monitors for an additional 15-minute period of habituation. […]
Data were analyzed using GraphPad® Prism® 9 software (GraphPad, San Diego, CA, USA). […] Drug effect was evaluated using Analysis of Variance (ANOVA, or Welch's ANOVA when appropriate) followed by Dunnett's multiple comparisons test. When appropriate, the ED50 value was determined from percent inhibition data from linear regression analysis.

solubility thermodynamic at 4 h [1] [µM]	solubility kinetic at 2 h (Kinetic solubility study) [µM]	Structure (SMILES)	EC50 (human D3 receptors [2]) [nM]	EC50 (human D3 receptors [3]) [nM]	EC50 (human D2L receptors [4]) [nM]	EC50 (human D2L receptors [5]) [nM]	IC50 (human 5-HT2A receptors) [nM]	ED50 ([6]; apomorphine-induced climbing, read-out: APO (ED50 cl mg/kg)) [mg/kg]	ED50 ([6]; apomorphine-induced sniffing, read-out: APO (ED50 sn mg/kg)) [mg/kg]	ED50 [7] [mg/kg]
53.5 ± 0.9 (≈ 25.2 µg/mL)	72.7 ± 3.4 (≈ 34.3 µg/mL)	CCOCN(C)C(=O)N[C@H]1CC[C@H](CCN2CCN(c3cccc(Cl)c3Cl)CC2)CC1 [Example 1, N′-[(1r,4r)-4-{2-[4-(2,3-dichlorophenyl)piperazin-1-yl]ethyl}cyclohexyl]-N-(ethoxymethyl)-N-methylurea]					158	0.1	0.4	0.07
27.7 ± 1.1 (≈ 12.6 µg/mL)	10.9 ± 1.7 (≈ 4.96 µg/mL)	CCCN(C)C(=O)N[C@H]1CC[C@H](CCN2CCN(c3cccc(Cl)c3Cl)CC2)CC1 [Ref. Ex. 1, N′-[(1r,4r)-4-{2-[4-(2,3-dichlorophenyl)piperazin-1-yl]ethyl}cyclohexyl]-N-methyl-N-propylurea, reference compound]								
32.7 ± 1.65 (≈ 15.9 µg/mL)	32.4 ± 3.2 (≈ 15.7 µg/mL)	CCCOCN(C)C(=O)N[C@H]1CC[C@H](CCN2CCN(c3cccc(Cl)c3Cl)CC2)CC1 [Example 3, N′-[(1r,4r)-4-{2-[4-(2,3-dichlorophenyl)piperazin-1-yl]ethyl}cyclohexyl]-N-methyl-N-(propoxymethyl)urea]								

Structure (SMILES)	solubility thermodynamic at 4 h [1] [µM]	solubility kinetic at 2 h (Kinetic solubility study) [µM]	EC50 (human D3 receptors [2]) [nM]	EC50 (human D3 receptors [3]) [nM]	EC50 (human D2L receptors [4]) [nM]	EC50 (human D2L receptors [5]) [nM]	IC50 (human 5-HT2A receptors) [nM]	ED50 ([6]; apomorphine-induced climbing, read-out: APO (ED50 cl mg/kg)) [mg/kg]	ED50 ([6]; apomorphine-induced sniffing, read-out: APO (ED50 sn mg/kg)) [mg/kg]	ED50 [7] [mg/kg]
COCN(C)C(=O)N[C@H]1CC[C@H](CCN2CCN(c3cccc(Cl)c3Cl)CC2)CC1 [Example 2, N′-[(1r,4r)-4-{2-[4-(2,3-dichlorophenyl)piperazin-1-yl]ethyl}cyclohexyl]-N-(methoxymethyl)-N-methylurea]	147 ± 8.72 (≈ 67.3 µg/mL)	47.7 ± 4.5 (≈ 21.8 µg/mL)	3.89	1.95	0.724	1.32	132			
